Test results: ChEMBL document CHEMBL1201862, “PubChem BioAssay data set” (2004)
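Cultured in 96-well plates, cells were exposed to test compound for 48 hours across five concentrations. GI50 = concentration required for 50% inhibition of growth.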 Activity calls are given as the source filed them. No stated cut-off is given here; in the data, active = GI50 up to about 1.1 µM and inactive = higher.

Assays:
Test in all cases: growth of human tumour cells (NCI), 48 h
OVCAR-3 = tested on: OVCAR-3
SNB-19 = tested on: SNB-19
M19-MEL = tested on: M19-MEL
OVCAR-4 = tested on: OVCAR-4
RPMI-8226 = tested on: RPMI-8226
UACC-62 = tested on: UACC-62
HCC 2998 = tested on: HCC 2998
HOP-18 = tested on: HOP-18
DMS-273 = tested on: DMS-273
NCI-H522 = tested on: NCI-H522
786-0 = tested on: 786-0
SW-620 = tested on: SW-620
A498 = tested on: A498
SK-MEL-28 = tested on: SK-MEL-28
NCI-H23 = tested on: NCI-H23
NCI-H226 = tested on: NCI-H226
KM12 = tested on: KM12
SK-MEL-2 = tested on: SK-MEL-2
KM-20L2 = tested on: KM-20L2
COLO 205 = tested on: COLO 205
SF-268 = tested on: SF-268
ACHN = tested on: ACHN
UO-31 = tested on: UO-31
EKVX = tested on: EKVX
NCI-H460 = tested on: NCI-H460
MOLT-4 = tested on: MOLT-4
SF-295 = tested on: SF-295
HOP-62 = tested on: HOP-62
HL-60 = tested on: HL-60
HCT-116 = tested on: HCT-116
K562 = tested on: K562
Malme-3M = tested on: Malme-3M
CCRF-CEM = tested on: CCRF-CEM
LOX IMVI = tested on: LOX IMVI
RXF 631 = tested on: RXF 631
HOP-92 = tested on: HOP-92
XF498 = tested on: XF498
OVCAR-8 = tested on: OVCAR-8
IGROV-1 = tested on: IGROV-1
A549 = tested on: A549
TK-10 = tested on: TK-10
HCT-15 = tested on: HCT-15
LXFL 529 = tested on: LXFL 529
CAKI-1 = tested on: CAKI-1
SK-MEL-5 = tested on: SK-MEL-5
OVCAR-5 = tested on: OVCAR-5
M14 = tested on: M14
SF-539 = tested on: SF-539
SN12C = tested on: SN12C
HT-29 = tested on: HT-29
U-251 = tested on: U-251
DLD-1 = tested on: DLD-1
SNB-75 = tested on: SNB-75
DMS-114 = tested on: DMS-114
SR = tested on: SR
UACC-257 = tested on: UACC-257
SK-OV-3 = tested on: SK-OV-3

Which GI50 (OVCAR-3) does the source give for `O=[N+]([O-])c1ccc(-c2ccc(C3=Nn4c(nnc4-c4ccc(Cl)cc4)SC3)o2)cc1` here?
The GI50 was 94.8 µM (inactive).

What about the GI50 (SNB-19) of the same molecule?
Its GI50 is 30.3 µM (inactive).

And the GI50 (M19-MEL)?
Its GI50 is > 100 µM (inactive).

And the GI50 (OVCAR-4)?
Its GI50 is > 100 µM (inactive).

What about the GI50 (RPMI-8226) of the same molecule?
The GI50 was > 100 µM (inactive).

What about the GI50 (UACC-62) of the same molecule?
The GI50 was > 100 µM (inactive).

What about the GI50 (HCC 2998) of the same molecule?
Its GI50 is > 100 µM (inactive).

What about the GI50 (HOP-18) of the same molecule?
The GI50 was > 100 µM (inactive).

And the GI50 (DMS-273)?
The GI50 was 67.9 µM (inactive).

What about the GI50 (NCI-H522) of the same molecule?
The GI50 was > 89.3 µM (inactive).

And the GI50 (786-0)?
The GI50 was 31.4 µM (inactive).

And the GI50 (SW-620)?
Its GI50 is > 100 µM (inactive).

And the GI50 (A498)?
The GI50 was 92.7 µM (inactive).

What about the GI50 (SK-MEL-28) of the same molecule?
The GI50 was > 100 µM (inactive).

What about the GI50 (NCI-H23) of the same molecule?
Its GI50 is > 53.2 µM (inactive).

What about the GI50 (NCI-H226) of the same molecule?
Its GI50 is > 100 µM (inactive).

And the GI50 (KM12)?
Its GI50 is > 100 µM (inactive).

What about the GI50 (SK-MEL-2) of the same molecule?
The GI50 was 99.3 µM (inactive).

What about the GI50 (KM-20L2) of the same molecule?
Its GI50 is > 100 µM (inactive).

What about the GI50 (COLO 205) of the same molecule?
Its GI50 is > 100 µM (inactive).

What about the GI50 (SF-268) of the same molecule?
Its GI50 is > 100 µM (inactive).

And the GI50 (ACHN)?
Its GI50 is 46.6 µM (inactive).

What about the GI50 (UO-31) of the same molecule?
Its GI50 is > 100 µM (inactive).

What about the GI50 (EKVX) of the same molecule?
The GI50 was > 100 µM (inactive).

What about the GI50 (NCI-H460) of the same molecule?
Its GI50 is > 73.3 µM (inactive).

What about the GI50 (MOLT-4) of the same molecule?
Its GI50 is > 100 µM (inactive).

What about the GI50 (SF-295) of the same molecule?
The GI50 was 26.5 µM (inactive).

What about the GI50 (HOP-62) of the same molecule?
The GI50 was 31 µM (inactive).

And the GI50 (HL-60)?
The GI50 was > 59 µM (inactive).

And the GI50 (HCT-116)?
The GI50 was 45 µM (inactive).

And the GI50 (K562)?
The GI50 was > 100 µM (inactive).

And the GI50 (Malme-3M)?
Its GI50 is > 52.5 µM (inactive).

And the GI50 (CCRF-CEM)?
The GI50 was > 100 µM (inactive).

And the GI50 (LOX IMVI)?
The GI50 was > 100 µM (inactive).

And the GI50 (RXF 631)?
Its GI50 is > 53.3 µM (inactive).

What about the GI50 (HOP-92) of the same molecule?
Its GI50 is 38.5 µM (inactive).

What about the GI50 (XF498) of the same molecule?
Its GI50 is 24.9 µM (inactive).

What about the GI50 (OVCAR-8) of the same molecule?
Its GI50 is > 92 µM (inactive).

And the GI50 (IGROV-1)?
Its GI50 is 56 µM (inactive).

What about the GI50 (A549) of the same molecule?
The GI50 was 47.1 µM (inactive).

What about the GI50 (TK-10) of the same molecule?
Its GI50 is 23.4 µM (inactive).

And the GI50 (HCT-15)?
The GI50 was over 92.5 µM.

What about the GI50 (LXFL 529) of the same molecule?
The GI50 was > 100 µM (inactive).

And the GI50 (CAKI-1)?
The GI50 was > 100 µM (inactive).

What about the GI50 (SK-MEL-5) of the same molecule?
The GI50 was > 100 µM (inactive).

What about the GI50 (OVCAR-5) of the same molecule?
Its GI50 is > 100 µM (inactive).

And the GI50 (M14)?
Its GI50 is > 100 µM (inactive).

What about the GI50 (SF-539) of the same molecule?
The GI50 was > 100 µM (inactive).

What about the GI50 (SN12C) of the same molecule?
The GI50 was 97.9 µM (inactive).

And the GI50 (HT-29)?
The GI50 was > 100 µM (inactive).

What about the GI50 (U-251) of the same molecule?
The GI50 was 37.1 µM (inactive).

And the GI50 (DLD-1)?
The GI50 was > 91.4 µM (inactive).

And the GI50 (SNB-75)?
Its GI50 is 25.4 µM (inactive).

What about the GI50 (DMS-114) of the same molecule?
Its GI50 is > 100 µM (inactive).

What about the GI50 (SR) of the same molecule?
The GI50 was > 100 µM (inactive).

What about the GI50 (UACC-257) of the same molecule?
The GI50 was > 100 µM (inactive).

What about the GI50 (SK-OV-3) of the same molecule?
Its GI50 is > 82.4 µM (inactive).
